Assay results from patent US20240158446A1, “CYCLIC COMPOUND HAVING SELECTIVE INHIBITORY ACTION ON KRAS OVER HRAS AND NRAS” (CHUGAI SEIYAKU KABUSHIKI KAISHA, priority 2021, published 2024).

How the values were obtained:
[1] = test system: human lung cancer strain NCI-H441; experiment: cells; conditions: NCI-H441, 96 h, read-out: NCI-H441 IC50 (nM), NCI-H441 cell proliferation, 4 days, CellTiter-Glo;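 further: cell proliferation inhibition after four days measured by CellTiter-Glo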
[2] = biological target: GDP-bound HRAS wild-type protein (Homo sapiens, UniProt P01112); experiment: Binding to HRAS by surface plasmon resonance (SPR), Single Cycle Kinetics; conditions: ratio of KD for GDP-bound HRAS wild-type protein to KD for KRAS, SPR
[3] = biological target: GDP-bound NRAS wild-type protein (Homo sapiens, UniProt P01111); experiment: Binding to NRAS by surface plasmon resonance (SPR), Single Cycle Kinetics; conditions: ratio of KD for GDP-bound NRAS wild-type protein to KD for KRAS, SPR
Sequence of GDP-bound NRAS wild-type protein (P01111 whole entry): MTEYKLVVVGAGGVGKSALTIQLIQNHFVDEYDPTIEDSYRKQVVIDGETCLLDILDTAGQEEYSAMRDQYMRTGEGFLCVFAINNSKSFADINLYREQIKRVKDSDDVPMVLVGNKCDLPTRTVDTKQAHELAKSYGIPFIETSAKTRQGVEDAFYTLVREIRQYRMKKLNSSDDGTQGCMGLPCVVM

Sequence of GDP-bound HRAS wild-type protein (P01112 whole entry): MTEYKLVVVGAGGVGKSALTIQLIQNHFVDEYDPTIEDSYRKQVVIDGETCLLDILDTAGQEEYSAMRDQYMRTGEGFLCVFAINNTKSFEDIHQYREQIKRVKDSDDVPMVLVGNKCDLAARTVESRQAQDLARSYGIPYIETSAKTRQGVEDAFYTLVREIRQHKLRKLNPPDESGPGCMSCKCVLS

IC50 [1] | Compound | HRAS/KRAS (KD ratio) [2] | NRAS/KRAS (KD ratio) [3]
14.2 nM | CCCOC[C@H]1C(=O)N[C@@H]([C@@H](C)CC)C(=O)N(C)CC(=O)N(C)[C@H]2C/C=C\CCN(C2=O)[C@@H](Cc2ccc(C(F)(F)F)cc2)C(=O)N(C)CC(=O)N[C@@H](CCc2ccc(C(F)(F)F)c(OC)c2)C(=O)N2C[C@@H](C)C[C@H]2C(=O)NC2(CC(C)(C)C2)C(=O)N(C)[C@@H](C2CCCC2)C(=O)N(C)[C@H](C(=O)N(C)C)CC(=O)N1C [PP1997] | B (a compound having 3 or more and less than 10 is denoted as B) | A (a compound having 10 or more and less than 20 is denoted as A)
2.5 nM | CCCOC[C@H]1C(=O)N[C@@H]([C@@H](C)CC)C(=O)N(C)CC(=O)N(C)[C@H]2C/C=C\CCN(C2=O)[C@@H](Cc2ccc(C(F)(F)F)cc2)C(=O)N(C)CC(=O)N[C@@H](CCc2ccc(C(F)(F)F)c(OC)c2)C(=O)N2C[C@H](OCC)C[C@H]2C(=O)NC2(CCC2)C(=O)N(C)[C@@H](C2CCCC2)C(=O)N(C)[C@H](C(=O)N(C)CCC)CC(=O)N1C [PP2017] | A (a compound having 10 or more and less than 20 is denoted as A) | A (a compound having 10 or more and less than 20 is denoted as A)
3 nM | CCO[C@@H]1C[C@H]2C(=O)N(C)C3(CCC3)C(=O)N(C)[C@@H](C3CCCC3)C(=O)N(C)[C@H](C(=O)N(C)C)CC(=O)N(C)[C@@H](CC3CC3)C(=O)N[C@@H]([C@@H](C)CC)C(=O)N(C)CC(=O)N(C)[C@H]3C/C=C\CCN(C3=O)[C@@H](Cc3ccc(C)cc3)C(=O)N(C)CC(=O)N[C@@H](CCc3cc(F)c(C(F)(F)F)c(F)c3)C(=O)N2C1 [PP1795] | B (a compound having 3 or more and less than 10 is denoted as B) | A (a compound having 10 or more and less than 20 is denoted as A)
3.6 nM | CCC[C@H]1C(=O)N[C@@H]([C@@H](C)CC)C(=O)N(C)CC(=O)N(C)[C@H]2C/C=C\CCN(C2=O)[C@@H](Cc2ccc(C)cc2)C(=O)N(C)CC(=O)N[C@@H](CCc2ccc(C(F)(F)F)c(OC)c2)C(=O)N2C[C@H](C)C[C@H]2C(=O)NC2(CC(C)(C)C2)C(=O)N(C)[C@@H](C2CCCC2)C(=O)N(C)[C@H](C(=O)N(C)C)CC(=O)N1C [PP1890] | B (a compound having 3 or more and less than 10 is denoted as B) | A (a compound having 10 or more and less than 20 is denoted as A)
13 nM | CC[C@H](C)[C@@H]1NC(=O)[C@H](CC2CC2)N(C)C(=O)C[C@@H](C(=O)N(C)C)N(C)C(=O)[C@H](C2CCCC2)N(C)C(=O)C2(CCC2)N(C)C(=O)[C@@H]2C[C@@H](C)CN2C(=O)[C@H](CCc2cc(F)c(C(F)(F)F)c(F)c2)NC(=O)CN(C)C(=O)[C@H](Cc2ccc(C)cc2)N2CC/C=C\C[C@@H](C2=O)N(C)C(=O)[C@@H]2CCCN2C1=O [PP1801] | B (a compound having 3 or more and less than 10 is denoted as B) | A (a compound having 10 or more and less than 20 is denoted as A)
34.6 nM | CCCN(C)C(=O)[C@@H]1CC(=O)N(C)[C@@H](CC(C)C)C(=O)N[C@@H]([C@@H](C)CC)C(=O)N(C)CC(=O)N(C)[C@H]2C/C=C\CCN(C2=O)[C@@H](Cc2ccc(C(F)(F)F)cc2)C(=O)N(C)CC(=O)N[C@@H](CCc2cc(F)c(C(F)(F)F)c(F)c2)C(=O)N2C[C@H](OCC)C[C@H]2C(=O)NC2(COC2)C(=O)N(C)[C@@H](C2CCCC2)C(=O)N1C [PP1938] | A (a compound having 10 or more and less than 20 is denoted as A) | AA (a compound having 20 or more is denoted as AA)
18.9 nM | CCCN(C)C(=O)[C@@H]1CC(=O)N(C)[C@@H](CCOC)C(=O)N[C@@H]([C@@H](C)CC)C(=O)N(C)CC(=O)N(C)[C@H]2C/C=C\CCN(C2=O)[C@@H](Cc2ccc(C(F)(F)F)cc2)C(=O)N(C)CC(=O)N[C@@H](CCc2ccc(C(F)(F)F)c(OC)c2)C(=O)N2C[C@@H](C)C[C@H]2C(=O)NC2(CCC2)C(=O)N(C)[C@@H](C2CCCC2)C(=O)N1C [PP2029] | B (a compound having 3 or more and less than 10 is denoted as B) | A (a compound having 10 or more and less than 20 is denoted as A)
30.1 nM | CC[C@H](C)[C@@H]1NC(=O)[C@H](C2CC2)N(C)C(=O)C[C@@H](C(=O)N(C)CC)N(C)C(=O)[C@H](C2CCCC2)N(C)C(=O)C2(CC(C)(C)C2)NC(=O)[C@@H]2C[C@H](C)CN2C(=O)[C@H](CCc2cc(F)c(C(F)(F)F)c(F)c2)NC(=O)CN(C)C(=O)[C@H](Cc2ccc(C(F)(F)F)cc2)N2CC/C=C\C[C@@H](C2=O)N(C)C(=O)CN(C)C1=O [PP1980] | B (a compound having 3 or more and less than 10 is denoted as B) | A (a compound having 10 or more and less than 20 is denoted as A)
6 nM | CC[C@H](C)[C@@H]1NC(=O)[C@H](CC(C)C)N(C)C(=O)C[C@@H](C(=O)N(C)C)N(C)C(=O)[C@H](C2CCCC2)N(C)C(=O)C2(CCC2)NC(=O)[C@@H]2C[C@H](C)CN2C(=O)[C@H](CCc2ccc(C(F)(F)F)c(Cl)c2)NC(=O)CN(C)C(=O)[C@H](Cc2ccc(C)cc2)N2CC/C=C\C[C@@H](C2=O)N(C)C(=O)CN(C)C1=O [PP1852] | B (a compound having 3 or more and less than 10 is denoted as B) | A (a compound having 10 or more and less than 20 is denoted as A)
15.9 nM | CCC[C@H]1C(=O)N[C@@H]([C@@H](C)CC)C(=O)N(C)CC(=O)N(C)[C@H]2C/C=C\CCN(C2=O)[C@@H](Cc2ccc(C)cc2)C(=O)N(C)CC(=O)N[C@@H](CCc2ccc(C(F)(F)F)c(Cl)c2)C(=O)N2C[C@H](C)C[C@H]2C(=O)NC2(CC(C)(C)C2)C(=O)N(C)[C@@H](C2CCCC2)C(=O)N(C)[C@H](C(=O)N(C)CC)CC(=O)N1C [PP1894] | A (a compound having 10 or more and less than 20 is denoted as A) | A (a compound having 10 or more and less than 20 is denoted as A)
7.6 nM | CC[C@H](C)[C@@H]1NC(=O)[C@H](CC2CCC2)N(C)C(=O)C[C@@H](C(=O)N(C)C)N(C)C(=O)[C@H](C2CCCC2)N(C)C(=O)C2(CCC2)N(C)C(=O)[C@@H]2C[C@@H](C)CN2C(=O)[C@H](CCc2cc(F)c(C(F)(F)F)c(F)c2)NC(=O)CN(C)C(=O)[C@H](Cc2ccc(C)cc2)N2CC/C=C\C[C@@H](C2=O)N(C)C(=O)CN(C)C1=O [PP1803] | B (a compound having 3 or more and less than 10 is denoted as B) | A (a compound having 10 or more and less than 20 is denoted as A)
3.7 nM | CCO[C@@H]1C[C@H]2C(=O)NC3(CCC3)C(=O)N(C)[C@@H](C3CCCC3)C(=O)N(C)[C@H](C(=O)N(C)CC)CC(=O)N(C)[C@@H](CC(F)(F)F)C(=O)N[C@@H]([C@@H](C)CC)C(=O)N(C)CC(=O)N(C)[C@H]3C/C=C\CCN(C3=O)[C@@H](Cc3ccc(C(F)(F)F)cc3)C(=O)N(C)CC(=O)N[C@@H](CCc3cc(F)c(C(F)(F)F)c(F)c3)C(=O)N2C1 [PP1701] | A (a compound having 10 or more and less than 20 is denoted as A) | A (a compound having 10 or more and less than 20 is denoted as A)
9.8 nM | CC[C@H](C)[C@@H]1NC(=O)[C@H](CC)N(C)C(=O)C[C@@H](C(=O)N(C)C)N(C)C(=O)[C@H](C2CCCC2)N(C)C(=O)C2(CC(C)(C)C2)NC(=O)[C@@H]2C[C@@H](C)CN2C(=O)[C@H](CCc2ccc(C(F)(F)F)c(Cl)c2)NC(=O)CN(C)C(=O)[C@H](Cc2ccc(C)cc2)N2CC/C=C\C[C@@H](C2=O)N(C)C(=O)CN(C)C1=O [PP1846] | B (a compound having 3 or more and less than 10 is denoted as B) | A (a compound having 10 or more and less than 20 is denoted as A)
26.8 nM | CCC[C@H]1C(=O)N[C@@H]([C@@H](C)CC)C(=O)N(C)CC(=O)N(C)[C@H]2C/C=C\CCN(C2=O)[C@@H](Cc2ccc(C)cc2)C(=O)N(C)CC(=O)N[C@@H](CCc2ccc(C(F)(F)F)c(OC)c2)C(=O)N2C[C@@H](C)C[C@H]2C(=O)NC2(CCC2)C(=O)N(C)[C@@H](C2CCCC2)C(=O)N(C)[C@H](C(=O)N(C)CC)CC(=O)N1C [PP1840] | B (a compound having 3 or more and less than 10 is denoted as B) | A (a compound having 10 or more and less than 20 is denoted as A)
7.6 nM | CC[C@H](C)[C@@H]1NC(=O)[C@H](CC2CC2)N(C)C(=O)C[C@@H](C(=O)N(C)C)N(C)C(=O)[C@H](C2CCCC2)N(C)C(=O)C2(CC(C)(C)C2)NC(=O)[C@@H]2C[C@@H](C)CN2C(=O)[C@H](CCc2ccc(C(F)(F)F)c(OC)c2)NC(=O)CN(C)C(=O)[C@H](Cc2ccc(C)cc2)N2CC/C=C\C[C@@H](C2=O)N(C)C(=O)CN(C)C1=O [PP1901] | B (a compound having 3 or more and less than 10 is denoted as B) | A (a compound having 10 or more and less than 20 is denoted as A)
10.3 nM | CCC[C@H]1C(=O)N[C@@H]([C@@H](C)CC)C(=O)N(C)CC(=O)N(C)[C@H]2C/C=C\CCN(C2=O)[C@@H](Cc2ccc(C)cc2)C(=O)N(C)CC(=O)N[C@@H](CCc2cc(F)c(C(F)(F)F)c(F)c2)C(=O)N2C[C@@H](C)C[C@H]2C(=O)NC2(CCC2)C(=O)N(C)[C@@H](C2CCCC2)C(=O)N(C)[C@H](C(=O)N(C)CC)CC(=O)N1C [PP1860] | A (a compound having 10 or more and less than 20 is denoted as A) | A (a compound having 10 or more and less than 20 is denoted as A)
5 nM | CCC[C@H]1C(=O)N[C@@H]([C@@H](C)CC)C(=O)N(C)CC(=O)N(C)[C@H]2C/C=C\CCN(C2=O)[C@@H](Cc2ccc(C)cc2)C(=O)N(C)CC(=O)N[C@@H](CCc2ccc(C(F)(F)F)c(OC)c2)C(=O)N2C[C@@H](C)C[C@H]2C(=O)NC2(CCC2)C(=O)N(C)[C@@H](C2CCCC2)C(=O)N(C)[C@H](C(=O)N(C)C)CC(=O)N1C [PP1857] | B (a compound having 3 or more and less than 10 is denoted as B) | A (a compound having 10 or more and less than 20 is denoted as A)
